Results from patent publication US20210293825A1, “METHODS FOR PRECISION THERAPEUTIC TARGETING OF HUMAN CANCER CELL MOTILITY AND KITS THEREOF” (UNITED STATES GOVERNMENT AS REPRESENTED BY THE DEPARTMENT …, priority 2018, published 2021).

What was measured:
[1] = test system: human prostate cells (PC3, PC3-M, 1532NPTX, 1542NPTX, 1532CPTX, 1542CPTX); experiment: Boyden chamber cell invasion assay, human prostate cells; assay type: cell-based; conditions: 10 μM, 3 days; normal, primary and metastatic PCa cells
Source text: (§1) FIG. 1a is a schematic flow of probe synthesis and development strategy. […] Values are mean±SEM of a single experiment in replicates of N=4, with similar findings in multiple separate experiments (also N=4). […] Values are mean±SEM of a single experiment in replicates of N=24, with similar findings in a separate experiment (also N=24). *Denotes Student's t test P value <0.05, compared to controls. […] Values are mean±SEM from N>2 separate experiments, each in replicates of N=3. […] Values are the mean±SD number of total, CFU-GM, CFU-GEMM or BFU-E colonies at 14 days after treatment with KBU2046, from a single experiment in replicates of N=2. […] Values are the mean±SD of a single experiment, with similar results seen in a separate experiment, both in replicates of N=2.
Cell Invasion Assays. Boyden chamber cell invasion assays were performed as previously described^9, using either denatured collagen (BD Biosciences) or type IV human collagen (BD Biosciences), with the experiments repeated, each in N=4 replicates. In some experiments, as indicated, cells were transfected with an expression plasmid, using Lipofectamine 2000™ (Invitrogen), or with siRNA, using DharmaFect Duo (Thermo Scientific) and co-transfected with β-Galactosidase (Plasmid pCMV⋅SPORT-βgal; Life Technology).

[2] = test system: human prostate cells; experiment: Three day cell growth inhibition, human prostate cells; assay type: cell-based; conditions: 3 days growth inhibition
Source text: as §1
Assays were in replicates of N=3, and were repeated.

[3] = test system: 442 kinases, including 400 distinct parental kinases plus mutants; experiment: KINOMEscan assay (Ambit Biosciences); assay type: binding; conditions: tested at 10 μM
Source text: Kinase assay system #1. The KINOMEscan™ assay (Ambit Biosciences). This assay evaluates 442 kinases, including 400 distinct parental kinases plus mutants known to alter activity or responsiveness. It does so in the context of an assay that measures the ability of putative inhibitors to inhibit binding of bacterial purified kinase to immobilized phospho-acceptor protein substrate. This approach has been successfully to identify kinase interactions of several small molecule kinase inhibitors (Fabian, M. A. et al., Nat Biotechnol 23, 329-36 (2005); and Karaman, M. W. et al., Nat Biotechnol 26, 127-32 (2008)). KBU2046 was tested at 10 μM. […] There were two initial false positives (for a false positive rate of 0.4%), that were subsequently found to be negative in a dedicated follow up analysis. Specific and important negative findings include MKK4, p38 MAPK (α, β, γ and δ isoforms) and RAF1. Conclusions: there was no evidence that KBU2046 inhibits kinase function by competing for phospho-acceptor binding.

[4] = target: T1, RAF1 with HSP90β and CDC37 (Homo sapiens, UniProt P08238+Q16543); experiment: HSP90β/CDC37 heterocomplex in vitro kinase assay with RAF1; assay type: biochemical; conditions: purified recombinant RAF1, HSP90β and CDC37
T1 construct: host or cells: E. coli for HSP90β and CDC37
T1 sequence (P08238 whole entry): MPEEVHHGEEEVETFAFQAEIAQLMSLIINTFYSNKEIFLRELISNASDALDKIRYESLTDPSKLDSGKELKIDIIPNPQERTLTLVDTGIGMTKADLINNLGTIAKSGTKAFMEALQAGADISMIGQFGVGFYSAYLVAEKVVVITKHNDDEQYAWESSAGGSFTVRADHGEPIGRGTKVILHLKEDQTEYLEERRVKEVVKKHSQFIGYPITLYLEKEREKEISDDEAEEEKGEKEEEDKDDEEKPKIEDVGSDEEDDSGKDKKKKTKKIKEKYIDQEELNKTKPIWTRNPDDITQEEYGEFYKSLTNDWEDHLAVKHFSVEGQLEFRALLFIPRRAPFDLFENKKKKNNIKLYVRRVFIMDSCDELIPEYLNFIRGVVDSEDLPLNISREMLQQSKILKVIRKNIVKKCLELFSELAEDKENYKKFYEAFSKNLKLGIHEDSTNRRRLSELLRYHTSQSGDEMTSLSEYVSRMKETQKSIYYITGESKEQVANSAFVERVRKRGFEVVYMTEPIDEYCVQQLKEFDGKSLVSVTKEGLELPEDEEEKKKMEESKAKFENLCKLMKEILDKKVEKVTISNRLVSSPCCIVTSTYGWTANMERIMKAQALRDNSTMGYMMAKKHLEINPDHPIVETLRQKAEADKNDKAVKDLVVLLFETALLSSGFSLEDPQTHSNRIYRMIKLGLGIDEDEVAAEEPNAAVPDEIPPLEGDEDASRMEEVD
T1 sequence (Q16543 whole entry): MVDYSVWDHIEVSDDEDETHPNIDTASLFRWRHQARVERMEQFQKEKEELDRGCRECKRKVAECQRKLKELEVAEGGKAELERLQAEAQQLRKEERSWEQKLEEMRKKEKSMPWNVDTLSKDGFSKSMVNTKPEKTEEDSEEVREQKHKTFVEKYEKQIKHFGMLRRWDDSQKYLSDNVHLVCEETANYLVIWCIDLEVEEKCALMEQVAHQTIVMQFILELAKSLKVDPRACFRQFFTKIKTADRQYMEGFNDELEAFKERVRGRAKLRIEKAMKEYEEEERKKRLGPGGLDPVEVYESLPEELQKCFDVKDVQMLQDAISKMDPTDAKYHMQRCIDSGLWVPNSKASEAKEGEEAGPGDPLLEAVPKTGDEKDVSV
Experimental: HEK293T cells were transfected with 1 of 420 different protein kinases, treated with 10 μM KBU2046 (N=5 replicates) or vehicle control (N=5) for three days, and LUMIER assays performed. The N=17 kinases that gave significant findings (Student's t-test <0.05) in the same direction in each of two separate experiments are depicted. Each separate treatment and kinase condition in each of two separate experiments was conducted in replicates of N=5. […] FIGS. 6c and 6d show the results of the wound healing assay. PC3 cells were transfected with siRNA targeting RAF1 (si-Raf1) or non-targeting siRNA (si-control), treated with KBU2046 or vehicle as above, and RAF1 protein measured by Western blot (c) and effects upon wound healing measured (d). […] Purified recombinant HSP90β, CDC37, and RAF1 were combined with KBU2046, as indicated, incubated in an in vitro kinase assay for the indicated times, and Western blot for RAF1-Ser^338 phosphorylation performed. FIGS. 6f and 6g show the effect on HSP90β/CDC37 heterocomplex formation and function in vitro. Purified recombinant HSP90β, CDC37, RAF1, SGK3 or MAP3K6 were combined and treated with KBU2046 or vehicle control, as indicated, incubated in an in vitro kinase assay for the indicated times, and Western blot performed, as denoted. Experiments were repeated at separate times at least once, with similar results. […]

## O=C1c2ccccc2OCC1c1ccc(F)cc1 (racemic) [KBU2046, (±)-3(4-fluorophenyl)chroman-4-one]
[1]
  inhibition of cell invasion: inhibits cell invasion with efficacy equal-to-or-greater-than that of genistein
[2]
  toxicity to human prostate cells: not toxic
[3]
  inhibition of kinase binding to immobilized phospho-acceptor substrate: completely negative
[4]
  phosphorylation of RAF1 Ser338 activation motif: decreased phosphorylation of RAF1's Ser338 activation motif
